# Assay results taken from US20220218712A1, “TREATMENT OF ALZHEIMER'S DISEASE” (Saint Louis University, priority 2019, published 2022).
# Legend:
# SAMP8 mice [1] = assay: T-maze shock avoidance, acquisition and one-week retention; format: in vivo, mouse; details: 12 month-old SAMP8 mice, 1 mg/kg IP every 48 hours for 5 weeks
# Description: FIG. 1 depicts the effects of a selective A3AR agonist, MRS5980, on learning and memory in 12 month-old SAMP8 mice. The selective A3AR agonist, MRS5980 (1 mg/kg, IP) or vehicle (saline) was given every 48 hours for 5 weeks starting at 12 months of age. Behavioral testing began after 3 weeks of treatment. NORPT—the Novel Object Recognition Protocol Test is a memory task that involves the hippocampus when, as performed herein, the retention interval is 24 hours after initial exposure to the two like objects. Mice received three 5 minutes habituation trials in an empty apparatus separated by 2 hours, the day prior to entry of the objects. During the training session, the mouse was exposed to two similar objects (plastic frogs) which it was allowed to examine for 5 minutes. The apparatus and the objects were cleaned between each trial to remove odor cures. Twenty-four hours later, the mouse was exposed to one of the original objects and a new novel object (plastic bird) and the time spent examining the objects was recorded. The results are expressed as Discrimination index=(Total new−Total old)/Total new+Total old)]. The novel object was made out of the same material as the original object and of the same size, but a different shape. The underlying concept of the NORPT is based on the tendency of mice to spend more time exploring new objects than familiar ones. Thus, the greater the retention/memory at 24 hours, the more time spent with the new object the higher the discrimination. […] Number of attempts before first successful avoidance of the shock in T-maze and retention (memory) for the T-maze one-week later was also determined. Retention was defined as number of trial to successfully avoid the shock 5 out of 6 consecutive trials. […] ANOVA followed by pairwise Tukey's post hoc test. Means±SEM; n=6-8/group; **p<0.01.
# SAMP8 mice [2] = assay: Novel Object Recognition Protocol Test (NORPT); format: in vivo, mouse; details: 12 month-old SAMP8 mice, 1 mg/kg IP every 48 hours for 5 weeks
# Description: FIG. 1 depicts the effects of a selective A3AR agonist, MRS5980, on learning and memory in 12 month-old SAMP8 mice. The selective A3AR agonist, MRS5980 (1 mg/kg, IP) or vehicle (saline) was given every 48 hours for 5 weeks starting at 12 months of age. Behavioral testing began after 3 weeks of treatment. NORPT—the Novel Object Recognition Protocol Test is a memory task that involves the hippocampus when, as performed herein, the retention interval is 24 hours after initial exposure to the two like objects. Mice received three 5 minutes habituation trials in an empty apparatus separated by 2 hours, the day prior to entry of the objects. During the training session, the mouse was exposed to two similar objects (plastic frogs) which it was allowed to examine for 5 minutes. The apparatus and the objects were cleaned between each trial to remove odor cures. Twenty-four hours later, the mouse was exposed to one of the original objects and a new novel object (plastic bird) and the time spent examining the objects was recorded. The results are expressed as Discrimination index=(Total new−Total old)/Total new+Total old)]. The novel object was made out of the same material as the original object and of the same size, but a different shape. […] Number of attempts before first successful avoidance of the shock in T-maze and retention (memory) for the T-maze one-week later was also determined. […]
# [3] = vs old vehicle treated controls
structure (smiles),measurement,setting,value
CNC(=O)[C@@]12C[C@@H]1[C@@H](n1cnc3c(NC)nc(C#Cc4ccc(Cl)s4)nc31)[C@H](O)[C@@H]2O [MRS5980],T-maze learning and retention,SAMP8 mice [1]; old treated mice vs young vehicle treated controls,no difference between the young vehicle treated controls and the old A3AR treated mice
same,Number of attempts before first successful avoidance of the shock in T-maze (learning),SAMP8 mice [1]; [3],learned and remembered the T-maze better than the old vehicle treated controls
same,"Retention (memory) for the T-maze one-week later, trials to avoid the shock 5 out of 6 consecutive trials",SAMP8 mice [1]; [3],remembered the T-maze better than the old vehicle treated controls
same,Discrimination index (memory at 24 hours) in NORPT,SAMP8 mice [2]; old treated mice vs young mice,no difference between the young mice and the old A3 AR treated mice
same,Discrimination index (memory at 24 hours) in NORPT,"SAMP8 mice [2]; retention interval 24 hours, vs vehicle treated controls, **p<0.01",significantly better memory than vehicle treated controls
